Results reported in US10468120B2, “Method of generating a hyperpigmentation condition gene expression signature” (The Procter & Gamble Company, priority 2012, dated 2019).

How the values were obtained:
[1] = tested on: Chinese females, 25-55 years old with hyperpigmented spots; assay: 9-week randomized, double-blind, vehicle-controlled, split-face tone benefit study; assay type: in vivo, human; details: 0.05% in SC-99 vehicle, 2x a day, vs vehicle
Text: This Example provides evidence of the advantages of using composite signatures and illustrates clinical affirmation of the C-map model for predicting efficacy of skin-lightening agents. This Example supports embodiments related to composite signatures (as described at the end of Example 3). An illustrative “Skin Tone” Signature developed from a genomics study using a composite skin-lightening benchmark agent signature is derived from Niacinamide, Hexamidine, Sepiwhite, and NAG. The signature is used to query C-map and generate a list of potential skin-lightening agents. A top hit, Chlorhexidine Diactate (CD) is entered into clinical testing for confirmation of efficacy. The control for clinical efficacy is a 5% Niacinamide+1% Sepiwhite formulation in the control vehicle.
Primary endpoints are changes in color spot area fraction (image analysis) and melanin spot area fraction (NC2) from baseline. Secondary endpoints are changes from baseline in L*a*b (color image analysis), mean melanin gray scale (NC2), and melanin evenness (NC2). Texture area fraction and pore area fraction are also evaluated to explore impact on other aspects relating to overall skin tone. […] Statistically significant superiority to the high efficacy benchmark skin active agent to vehicle performance is the clinical success criteria.
Study Design: The experimental protocol included a 9-week (1-week preconditioning & 8-week treatment), randomized, double-blind, round robin, vehicle-controlled, split-face tone benefit study. The subject population included 330 Chinese females, 25-55 years old with hyperpigmented spots. 318 subjects completed the entire study. […] Olay Complete SPF 15 UV Moisturizing Lotion is concomitantly used during pre-conditioning and treatment. 0.5 g each test product per half-face (forehead to jaw line; ˜4 mg/cm^2) is dosed 2× a day (morning/evening). Color SAF and treatment area, Melanin SAF, gray scale, evenness by NC2, and additional measurement of Fine Lines and Wrinkle and Texture are by REAL 3.01A. Data collection points include baseline, and ends of weeks 4, 6 and 8. The tested hypothesis is that there is no difference in clinical endpoint versus the benchmark composition treatment. Study site is Kuntai Clinical Center, Beijing, China and study time frame is February 2010 (pre-conditioning) to April 2010.

[2] = tested on: tert-Keratinocyte (tKC) cells; assay: C-map query with the tone composite benchmark signature (Niacinamide, Hexamidine, Sepiwhite, NAG); assay type: cell-based, human; details: composite signature of Example 3
Experimental: Individual experiments (referred to as batches) generally comprise 30 to 96 samples analyzed using Affymetrix GeneChip® technology platforms, containing 6 replicates of the vehicle control (e.g., DSMO), 2 replicate samples of a positive control that gives a strong reproducible effect in the cell type used, and samples of the test material/perturbagen. Replication of the test material is done in separate batches due to batch effects. In vitro testing was performed in 6-well plates to provide sufficient RNA for GeneChip® analysis (2-4 μg total RNA yield/well).
Human telomerized keratinocytes (tKC) were obtained from the University of Texas, Southwestern Medical Center, Dallas, Tex. tKC cells were grown in EpiLife® media with 1× Human Keratinocyte Growth Supplement (Invitrogen, Carlsbad, Calif.) on collagen I coated cell culture flasks and plates (Becton Dickinson, Franklin Lakes, N.J.). Keratinocytes were seeded into 6-well plates at 20,000 cells/cm^2 24 hours before chemical exposure. Human skin fibroblasts (BJ cell line from ATCC, Manassas, Va.) were grown in Eagle's Minimal Essential Medium (ATCC) supplemented with 10% fetal bovine serum (HyClone, Logan, Utah) in normal cell culture flasks and plates (Corning, Lowell, Mass.). BJ fibroblasts were seeded into 6-well plates at 12,000 cells/cm^2 24 hours before chemical exposure. […]

For CC(=O)O.CC(=O)O.NC(=N\CCCCCC/N=C(N)/N=C(\N)Nc1ccc(Cl)cc1)/N=C(\N)Nc1ccc(Cl)cc1 [CD, Chlorhexidine Diacetate], the Basal skin tone ([1]; week 8) was “demonstrated superiority”, the Pore area fraction ([1]; week 8) was “superior efficacy” and the Texture area fraction ([1]; week 8) was “superior efficacy”. The “NC2 Melanin evenness test” value ([1]; weeks 6 and 8) was “superiority to the vehicle”, the “spot area fraction NC2 test” value ([1]; weeks 6 and 8) was “significantly reduced fraction when compared to the vehicle” and the “connectivity to the tone composite benchmark signature query” value [2] was “top connectivity hit”.
